The numbers were not newly measured in patent US20220313582A1, “METHOD FOR DYEING KERATINOUS MATERIAL, COMPRISING THE USE OF AN ORGANOSILICON COMPOUND, A CHROMOPHORIC COMPOUND AND A FILM-FORMING POLYMER II” (Henkel AG & Co. KGaA, priority 2019, published 2022), which cites them from elsewhere.

The conditions of this data set: for solubility in water: 25° C.

Consider `O=S(=O)([O-])c1ccc(N=Nc2c(O)ccc3ccccc23)cc1.[Na+]` [Acid Orange 7, sodium salt of 4-[(2-hydroxy-1-naphthyl)azo]benzene sulphonate], for which the solubility in water result is given as “more than 7 g/L”. For the compound `Nc1cc(S(=O)(=O)[O-])cc2cc(S(=O)(=O)[O-])c(N=Nc3ccccc3)c(O)c12.[Na+].[Na+]` [Acid Red 33, disodium salt of 5-amino-4-hydroxy-3-(phenylazo)-naphthalene-2,7-disulphonate], the solubility in water was 2500 µg/mL.

For the compound `O=C([O-])c1c(Cl)c(Cl)c(Cl)c(Cl)c1-c1c2c(Br)cc(=O)c(Br)c-2oc2c(Br)c(O)cc(Br)c12.O=C([O-])c1c(Cl)c(Cl)c(Cl)c(Cl)c1-c1c2c(Br)cc(=O)c(Br)c-2oc2c(Br)c(O)cc(Br)c12.[Na+].[Na+]` [Acid Red 92, disodium salt of 3,4,5,6-tetrachloro-2-(1,4,5,8-tetrabromo-6-hydroxy-3-oxoxanthen-9-yl)benzoic acid], the solubility in water result is recorded as “greater than 10 g/L”.

Regarding `O=C([O-])C1=NN(c2ccc(S(=O)(=O)[O-])cc2)C(=O)C1N=Nc1ccc(S(=O)(=O)[O-])cc1.[Na+].[Na+].[Na+]` (stereo not shown) [Acid Yellow 23, trisodium salt of 4,5-dihydro-5-oxo-1-(4-sulfophenyl)-4-((4-sulfophenyl)azo)-1H-pyrazole-3-carboxylic acid], the “solubility in water (in words)” value (at 25° C.) is reported as “highly soluble”.
